Data published in PubChem BioAssay (NCI).
Where “and” joins values, the source holds several entries; their conditions need not be identical. Identical values can stand only once.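 Growth conditions: 96-well plates. Treatment: test compound, 48 hours, 5 concentrations. Analysis: linear interpolation between bracketing concentrations; unreached endpoints set to highest concentration. GI50 is the concentration that inhibits growth by half. TGI marks complete inhibition of growth.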

Key:
Assay in all cases: NCI tumour cell line growth inhibition, 48 h
[1] = system: TK-10 renal
[2] = system: LOX IMVI melanoma
[3] = system: HT29 colon
[4] = system: NCI-H460 lung
[5] = system: KM12 colon
[6] = system: HL-60(TB) leukemia
[7] = system: OVCAR-8 ovarian
[8] = system: UACC-257 melanoma
[9] = system: MCF7 breast
[10] = system: CCRF-CEM leukemia
[11] = system: PC-3 prostate
[12] = system: SR leukemia

## CC(=O)NC1=NC(=O)/C(=C/c2ccc(/C=C3/C(=O)N=C(NC(C)=O)N3C)cc2)N1C
[1]
  TGI: > 100 µM
[2]
  TGI: > 100 µM
[3]
  TGI: > 100 µM
[4]
  TGI: > 100 µM
[5]
  TGI: > 100 µM
[6]
  TGI: > 100 µM
[7]
  TGI: > 100 µM
[8]
  TGI: > 100 µM
[9]
  TGI: > 100 µM

## O=c1[nH]c(NCc2ccc(Cl)cc2)nc2nc[nH]c12
[10]
  TGI: > 100 µM
[1]
  TGI: > 100 µM
[2]
  TGI: > 100 µM
[3]
  TGI: > 100 µM
[11]
  TGI: > 100 µM
[4]
  TGI: > 100 µM
[5]
  TGI: > 100 µM
[7]
  TGI: > 100 µM
[8]
  TGI: > 100 µM
[9]
  TGI: > 100 µM

## Cc1ccc(C2(c3ccc(F)cc3)OC(=O)c3ccccc32)c(O)c1 (centres undefined)
[10]
  TGI: 94.2 µM
[1]
  TGI: 29.6 µM
[2]
  TGI: 26.9 µM
[3]
  TGI: > 100 µM
[4]
  TGI: 35.5 µM
[5]
  TGI: 51.6 µM
[6]
  TGI: 41.9 µM
[7]
  TGI: 48 µM
[8]
  TGI: 31 µM
[9]
  TGI: 37.5 µM

## C[C@H](CCC1SC1(C)C)C1CCC2(C)C3=C(CC[C@]12C)[C@@]1(C)CC[C@H](O)C(C)(C)C1CC3 (some centres undefined)
[10]
  TGI: > 100 µM
[1]
  TGI: > 100 µM
[12]
  TGI: > 100 µM
[2]
  TGI: > 100 µM
[3]
  TGI: > 100 µM
[4]
  TGI: > 100 µM
[5]
  TGI: > 100 µM
[6]
  TGI: > 100 µM
[7]
  TGI: > 100 µM
[8]
  TGI: > 100 µM

## CCn1c2ccccc2c2c(-c3ccccc3)cc3c(c21)C(=O)N(c1ccccc1)C3=O
[10]
  TGI: > 100 µM
[1]
  TGI: > 100 µM
[12]
  TGI: > 100 µM
[2]
  TGI: > 100 µM
[4]
  TGI: > 100 µM
[5]
  TGI: > 100 µM
[6]
  TGI: > 100 µM
[7]
  TGI: > 100 µM
[8]
  TGI: > 100 µM

## C=C(Cl)C(Cl)(CCl)CCC(Br)C(C)(C)Br (centres undefined)
[10]
  TGI: > 10 µM
[1]
  TGI: > 10 µM
[12]
  TGI: > 10 µM
[3]
  TGI: > 10 µM
[11]
  TGI: > 10 µM
[5]
  TGI: > 10 µM
[6]
  TGI: > 10 µM
[7]
  TGI: > 10 µM
[9]
  TGI: > 10 µM

## OC1COC2CC(Nc3ccccn3)OC12 (centres undefined)
[10]
  TGI: > 100 µM
[1]
  TGI: > 100 µM
[12]
  TGI: > 100 µM
[2]
  TGI: > 100 µM
[3]
  TGI: > 100 µM
[11]
  TGI: > 100 µM
[4]
  TGI: > 100 µM
[5]
  TGI: > 100 µM
[7]
  TGI: > 100 µM
[8]
  TGI: > 100 µM

## CN(C)c1ccc(/C=C/c2sc3ccccc3[n+]2C)cc1
[1]
  TGI: 16 µM and 24.9 µM
[12]
  GI50: 2.07 µM and 0.268 µM
  TGI: 8.87 µM and 2.6 µM
[2]
  GI50: 2.34 µM and 1.11 µM
  TGI: 6.87 µM and 3.34 µM
[3]
  GI50: 2.71 µM and 1.14 µM
  TGI: 11.8 µM and 12 µM
[11]
  TGI: 10.9 µM and 22.8 µM
[4]
  GI50: 1.88 µM and 0.744 µM
  TGI: 5.28 µM and 7.85 µM
[5]
  GI50: 0.621 µM
  TGI: > 25.2 µM and 5.26 µM
[7]
  GI50: 0.0955 µM and 0.387 µM
  TGI: 1.17 µM and 6.8 µM
[8]
  TGI: 7.85 µM and 11.9 µM
[9]
  GI50: 3.94 µM and 1.46 µM
  TGI: 17.6 µM and 7.41 µM

## Cn1cc(S(=O)(=O)NC(=O)Nc2ccc(Cl)cc2)c(=O)c2ccc(F)cc21
[10]
  TGI: > 100 µM
[1]
  TGI: > 100 µM
[12]
  TGI: > 100 µM
[2]
  TGI: > 100 µM
[3]
  TGI: > 100 µM
[11]
  TGI: > 100 µM
[4]
  TGI: > 100 µM
[5]
  TGI: > 100 µM
[6]
  TGI: > 100 µM
[7]
  TGI: > 100 µM
[8]
  TGI: > 100 µM

## O=C(O)c1nc2ccc(C(F)(F)F)cc2nc1Nc1ccc(F)cc1
[1]
  TGI: > 100 µM
[12]
  TGI: 36.8 µM
[2]
  TGI: 53.3 µM
[3]
  TGI: > 100 µM
[11]
  TGI: 48 µM
[4]
  TGI: 50.9 µM
[5]
  TGI: 63 µM
[6]
  TGI: 33.3 µM
[7]
  TGI: 83.8 µM
[8]
  TGI: 78.1 µM
[9]
  TGI: 61.5 µM

## Cc1c2c(n(CC(c3ccccc3)c3ccccc3)c1C)NN=C(C#N)S2(=O)=O
[1]
  TGI: > 100 µM
[12]
  TGI: > 100 µM
[2]
  TGI: > 100 µM
[3]
  TGI: > 100 µM
[11]
  TGI: > 100 µM
[4]
  TGI: > 100 µM
[5]
  TGI: > 100 µM
[7]
  TGI: > 100 µM
[8]
  TGI: > 100 µM
[9]
  TGI: > 100 µM

## COC(=O)C1OC(O[C@H]2CC[C@]3(C)[C@H]4CC=C5[C@@H]6CC(C)(C)CC[C@]6(C(=O)OC6OCC(O)C(O)C6OC6OC(C)C(OC7OCC(O)C(O)C7O)C(OC7OCC(O)(CO)C7O)C6O)[C@H](O)C[C@@]5(C)[C@]4(C)CC[C@H]3C2(C)C)C(O)C(O)C1O (some centres undefined)
[10]
  TGI: > 100 µM
[1]
  TGI: 29.4 µM
[12]
  TGI: 6.37 µM
[2]
  TGI: 20.1 µM
[3]
  TGI: 7.16 µM
[11]
  TGI: 14.5 µM
[4]
  TGI: 34.3 µM
[5]
  TGI: 9.49 µM
[7]
  TGI: 24.4 µM
[8]
  TGI: 11.5 µM
[9]
  TGI: 3.43 µM

## O=C(Nc1ccc(S(=O)(=O)/N=c2\ncccn2C(=O)C(C(F)(F)F)C(F)(F)F)cc1)C(C(F)(F)F)C(F)(F)F
[10]
  TGI: > 100 µM
[1]
  TGI: > 100 µM
[2]
  TGI: > 100 µM
[3]
  TGI: > 100 µM
[11]
  TGI: > 100 µM
[4]
  TGI: > 100 µM
[5]
  TGI: > 100 µM
[6]
  TGI: > 100 µM
[7]
  TGI: > 100 µM
[8]
  TGI: > 100 µM
[9]
  TGI: > 100 µM

## Cc1nc2cc(Nc3ccccc3C(=O)O)ccc2s1
[10]
  TGI: > 100 µM
[1]
  TGI: > 100 µM
[12]
  TGI: > 100 µM
[2]
  TGI: > 100 µM
[3]
  TGI: > 100 µM
[4]
  TGI: > 100 µM
[5]
  TGI: > 100 µM
[6]
  TGI: > 100 µM
[7]
  TGI: > 100 µM

## COc1cc2c(/C=C3/C(=O)N(C)c4ccc(O)cc43)c(Cl)[nH]c2cc1C
[1]
  TGI: 20.7 µM
[12]
  TGI: 1.23 µM
[2]
  TGI: 17.3 µM
[3]
  TGI: 46.7 µM
[11]
  TGI: 20.8 µM
[4]
  TGI: 19.8 µM
[5]
  TGI: 6.64 µM
[6]
  TGI: 3.02 µM
[7]
  TGI: 15 µM
[8]
  TGI: 23.5 µM
[9]
  TGI: 33.4 µM

## COc1ccc(C2C(=O)c3c(OC)cc(OC)cc3OC2c2cccnc2)cc1 (centres undefined)
[10]
  TGI: > 100 µM
[1]
  TGI: > 100 µM
[12]
  TGI: > 100 µM
[2]
  TGI: > 100 µM
[3]
  TGI: > 100 µM
[11]
  TGI: > 100 µM
[4]
  TGI: > 100 µM
[5]
  TGI: > 100 µM
[7]
  TGI: > 100 µM
[8]
  TGI: > 100 µM
[9]
  TGI: > 100 µM

## C#CCN(Cc1ccc2nc(-c3ccccc3)c(N)nc2c1)c1cc(OC)c(OC)c(OC)c1
[10]
  TGI: 44.8 µM
[1]
  TGI: > 100 µM
[12]
  TGI: 39.2 µM
[2]
  TGI: 59.3 µM
[3]
  TGI: 59 µM
[4]
  TGI: 81.1 µM
[6]
  TGI: 41.4 µM
[7]
  TGI: > 100 µM

## C#CC(O)/C=C/CCCCCCC#CC/C=C\CC#CCCCCCCCCC(O)C#C (centres undefined)
[1]
  TGI: 28.2 µM
[12]
  TGI: > 22 µM
[2]
  TGI: < 0.0261 µM
[3]
  TGI: 12.3 µM
[11]
  TGI: 31.6 µM
[4]
  TGI: 41.5 µM
[5]
  TGI: 11.5 µM
[6]
  TGI: 3.71 µM
[7]
  TGI: 5.11 µM
[8]
  TGI: 15.1 µM
[9]
  TGI: 39.5 µM

## CC1(C)OC2OC(C(COS(=O)(=O)C(F)(F)F)N=[N+]=[N-])C(OC(=O)c3ccccc3)C2O1 (centres undefined)
[10]
  TGI: > 100 µM
[1]
  TGI: > 100 µM
[2]
  TGI: > 100 µM
[3]
  TGI: > 100 µM
[11]
  TGI: > 100 µM
[4]
  TGI: > 100 µM
[5]
  TGI: > 100 µM
[6]
  TGI: > 100 µM
[7]
  TGI: > 100 µM
[8]
  TGI: > 100 µM
[9]
  TGI: > 100 µM
